Results as given in PubChem BioAssay (NCI).
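Interpolation was linear, between the two tested concentrations surrounding the appropriate level; five concentrations were tested over 48 hours in 96-well plates. At the GI50, growth is halved. TGI denotes the concentration required for complete inhibition of growth.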

Assays:
Test in all cases: inhibition of tumour cell growth, NCI panel, 48 h
786-0 renal = system: 786-0 renal
A498 renal = system: A498 renal
A549 NSCLC = system: A549 NSCLC
ACHN renal = system: ACHN renal
BT-549 breast = system: BT-549 breast
CAKI-1 renal = system: CAKI-1 renal
CCRF-CEM leukemia = system: CCRF-CEM leukemia
COLO 205 colon = system: COLO 205 colon
DU-145 prostate = system: DU-145 prostate
EKVX NSCLC = system: EKVX NSCLC
HCC-2998 colon = system: HCC-2998 colon
HCT-116 colon = system: HCT-116 colon
HCT-15 colon = system: HCT-15 colon
HL-60(TB) leukemia = system: HL-60(TB) leukemia
HOP-62 NSCLC = system: HOP-62 NSCLC
HOP-92 NSCLC = system: HOP-92 NSCLC
HS 578T breast = system: HS 578T breast
HT29 colon = system: HT29 colon
IGROV1 ovarian = system: IGROV1 ovarian
K-562 leukemia = system: K-562 leukemia
KM12 colon = system: KM12 colon
LOX IMVI melanoma = system: LOX IMVI melanoma
M14 melanoma = system: M14 melanoma
MALME-3M melanoma = system: MALME-3M melanoma
MCF7 breast = system: MCF7 breast
MDA-MB-231 breast = system: MDA-MB-231 breast
MDA-MB-435 = system: MDA-MB-435
MOLT-4 leukemia = system: MOLT-4 leukemia
NCI-H226 lung = system: NCI-H226 lung
NCI-H23 lung = system: NCI-H23 lung
NCI-H460 lung = system: NCI-H460 lung
NCI-H522 lung = system: NCI-H522 lung
NCI/ADR-RES ovarian = system: NCI/ADR-RES ovarian
OVCAR-3 ovarian = system: OVCAR-3 ovarian
OVCAR-4 ovarian = system: OVCAR-4 ovarian
OVCAR-5 ovarian = system: OVCAR-5 ovarian
OVCAR-8 ovarian = system: OVCAR-8 ovarian
PC-3 prostate = system: PC-3 prostate
RPMI-8226 leukemia = system: RPMI-8226 leukemia
RXF 393 renal = system: RXF 393 renal
SF-268 CNS = system: SF-268 CNS
SF-295 CNS = system: SF-295 CNS
SF-539 CNS = system: SF-539 CNS
SK-MEL-2 melanoma = system: SK-MEL-2 melanoma
SK-MEL-28 melanoma = system: SK-MEL-28 melanoma
SK-MEL-5 melanoma = system: SK-MEL-5 melanoma
SK-OV-3 ovarian = system: SK-OV-3 ovarian
SN12C renal = system: SN12C renal
SNB-19 CNS = system: SNB-19 CNS
SNB-75 CNS = system: SNB-75 CNS
SR leukemia = system: SR leukemia
SW-620 colon = system: SW-620 colon
T-47D breast = system: T-47D breast
TK-10 renal = system: TK-10 renal
U251 CNS = system: U251 CNS
UACC-257 melanoma = system: UACC-257 melanoma
UACC-62 melanoma = system: UACC-62 melanoma
UO-31 renal = system: UO-31 renal

SMILES: CC(C)C(=O)Nc1ccc(-c2nc(-c3cccc(O)c3)c(-c3ccnc(Br)c3)[nH]2)cc1
- GI50 (786-0 renal): 0.718 µM
- TGI (786-0 renal): 7.63 µM
- GI50 (A498 renal): 0.957 µM
- TGI (A498 renal): 5.55 µM
- GI50 (A549 NSCLC): 1.64 µM
- TGI (A549 NSCLC): 23.6 µM
- GI50 (ACHN renal): 1.7 µM
- TGI (ACHN renal): 26.6 µM
- GI50 (BT-549 breast): 1.09 µM
- TGI (BT-549 breast): 7.25 µM
- GI50 (CAKI-1 renal): 0.932 µM
- TGI (CAKI-1 renal): 9.12 µM
- GI50 (CCRF-CEM leukemia): 0.653 µM
- TGI (CCRF-CEM leukemia): > 100 µM
- GI50 (COLO 205 colon): 1.47 µM
- TGI (COLO 205 colon): 6.94 µM
- GI50 (DU-145 prostate): 2.54 µM
- TGI (DU-145 prostate): 41.3 µM
- GI50 (EKVX NSCLC): 1.84 µM
- TGI (EKVX NSCLC): 25.6 µM
- GI50 (HCC-2998 colon): 1.38 µM
- TGI (HCC-2998 colon): 6.71 µM
- GI50 (HCT-116 colon): 0.905 µM
- TGI (HCT-116 colon): 7.68 µM
- GI50 (HCT-15 colon): 1.26 µM
- TGI (HCT-15 colon): 9.76 µM
- GI50 (HL-60(TB) leukemia): 0.768 µM
- TGI (HL-60(TB) leukemia): 2.74 µM
- GI50 (HOP-62 NSCLC): 1.82 µM
- TGI (HOP-62 NSCLC): 35.2 µM
- GI50 (HOP-92 NSCLC): 2.17 µM
- TGI (HOP-92 NSCLC): 7.27 µM
- GI50 (HS 578T breast): 0.592 µM
- TGI (HS 578T breast): 2.32 µM
- GI50 (HT29 colon): 1.4 µM
- TGI (HT29 colon): > 60.1 µM
- GI50 (IGROV1 ovarian): 0.962 µM
- TGI (IGROV1 ovarian): 5.83 µM
- GI50 (K-562 leukemia): 0.601 µM
- TGI (K-562 leukemia): > 100 µM
- GI50 (KM12 colon): 1.29 µM
- TGI (KM12 colon): 21.7 µM
- GI50 (LOX IMVI melanoma): 0.404 µM
- TGI (LOX IMVI melanoma): 5.71 µM
- GI50 (M14 melanoma): 0.764 µM
- TGI (M14 melanoma): 8.13 µM
- GI50 (MALME-3M melanoma): 0.919 µM
- TGI (MALME-3M melanoma): 4.9 µM
- GI50 (MCF7 breast): 0.566 µM
- TGI (MCF7 breast): 4.51 µM
- GI50 (MDA-MB-231 breast): 1.61 µM
- TGI (MDA-MB-231 breast): 36.3 µM
- GI50 (MDA-MB-435): 4.24 µM
- TGI (MDA-MB-435): 20.6 µM
- GI50 (MOLT-4 leukemia): 0.835 µM
- TGI (MOLT-4 leukemia): 7.98 µM
- GI50 (NCI-H226 lung): 1.78 µM
- TGI (NCI-H226 lung): 8.95 µM
- GI50 (NCI-H23 lung): 1.19 µM
- TGI (NCI-H23 lung): 12.9 µM
- GI50 (NCI-H460 lung): 1.45 µM
- TGI (NCI-H460 lung): 9.01 µM
- GI50 (NCI-H522 lung): 1.24 µM
- TGI (NCI-H522 lung): 9.03 µM
- GI50 (NCI/ADR-RES ovarian): 18 µM
- TGI (NCI/ADR-RES ovarian): > 100 µM
- GI50 (OVCAR-3 ovarian): 1.09 µM
- TGI (OVCAR-3 ovarian): 6.6 µM
- GI50 (OVCAR-4 ovarian): 2.85 µM
- TGI (OVCAR-4 ovarian): 27.7 µM
- GI50 (OVCAR-5 ovarian): 2.36 µM
- TGI (OVCAR-5 ovarian): 59.1 µM
- GI50 (OVCAR-8 ovarian): 1.28 µM
- TGI (OVCAR-8 ovarian): 18.6 µM
- GI50 (PC-3 prostate): 0.877 µM
- TGI (PC-3 prostate): 8.21 µM
- GI50 (RPMI-8226 leukemia): 0.83 µM
- TGI (RPMI-8226 leukemia): 2.43 µM
- GI50 (RXF 393 renal): 0.37 µM
- TGI (RXF 393 renal): 1.32 µM
- GI50 (SF-268 CNS): 2.83 µM
- TGI (SF-268 CNS): 40 µM
- GI50 (SF-295 CNS): 0.204 µM
- TGI (SF-295 CNS): 0.457 µM
- GI50 (SF-539 CNS): 0.685 µM
- TGI (SF-539 CNS): 2.89 µM
- GI50 (SK-MEL-2 melanoma): 1.64 µM
- TGI (SK-MEL-2 melanoma): 9.81 µM
- GI50 (SK-MEL-28 melanoma): 1.75 µM
- TGI (SK-MEL-28 melanoma): 23.5 µM
- GI50 (SK-MEL-5 melanoma): 1.1 µM
- TGI (SK-MEL-5 melanoma): 3.24 µM
- GI50 (SK-OV-3 ovarian): 1.89 µM
- TGI (SK-OV-3 ovarian): 10.6 µM
- GI50 (SN12C renal): 1.49 µM
- TGI (SN12C renal): 34.8 µM
- GI50 (SNB-19 CNS): 1.47 µM
- TGI (SNB-19 CNS): 61.2 µM
- GI50 (SNB-75 CNS): 0.529 µM
- TGI (SNB-75 CNS): 2.6 µM
- GI50 (SR leukemia): 1.19 µM
- TGI (SR leukemia): > 100 µM
- GI50 (SW-620 colon): 1.4 µM
- TGI (SW-620 colon): 16.2 µM
- GI50 (T-47D breast): 1.09 µM
- TGI (T-47D breast): 9.59 µM
- GI50 (TK-10 renal): 5.88 µM
- TGI (TK-10 renal): 36.8 µM
- GI50 (U251 CNS): 1.1 µM
- TGI (U251 CNS): 47.9 µM
- GI50 (UACC-257 melanoma): 3.47 µM
- TGI (UACC-257 melanoma): 24.2 µM
- GI50 (UACC-62 melanoma): 0.758 µM
- TGI (UACC-62 melanoma): 5.37 µM
- GI50 (UO-31 renal): 1.04 µM
- TGI (UO-31 renal): 4.59 µM
